In assay [1] the test system is human mesenchymal stem cells (MSC). Description: Adherence of MSCs on immobilized matrix proteins (Multiple Substrate Array chip). The conditions noted are these: immobilized protein on MSA chip, 20 000 cells/test chamber, FIG. 1. In kind it is cell-based. The procedure: The adherence of human mesenchymal stem cells (MSC, samples 5 and 6 in FIG. 1) and human fibroblasts (samples 1 to 4 in FIG. 1) on matrix proteins was investigated in a comparative test. The investigation was carried out using a chip (Multiple Substrate Array (MSA®)), on which the proteins were immobilized. The procedure used as such was as described in Kuschel et al., “Cell adhesion profiling using extracellular matrix protein microarrays”, Biotechniques 40: 523-531 (2006).
MSCs were enriched from bone marrow by density gradient centrifugation, cultivated as an adherent population in MSC-expansion medium, and harvested. The differentiation potential was tested on an aliquot and adipogenic, chondrogenic and osteogenic differentiation was confirmed. Therefore the cells fulfill the physiological requirements for MSCs (M. Dominici et al. 2006, Cytotherapy, 8: 315 ff). […]
Fibroblasts were isolated from the synovial membrane and expanded as described (Aicher et al. 1994 J. Immunol. 152: 5940 ff). The cells were harvested, washed, counted and in each case 20 000/test chamber were investigated using MSA™ chip technology for adherence to proteins. […] Cells adhering to the proteins were fixed chemically and their nuclei were marked with dye, for quantitation of the number of adherent cells per microspot of protein. […]

The subject of another assay is MSCs. Description: Adhesion of MSCs to BSA-coupled peptide microarrays (MSA technology). In kind it is cell-based, human. The conditions noted are these: peptide coupled to bovine serum albumin, incubation two hours, FIG. 2. The procedure:
(§1) The adhesion of cells to peptides was also measured using the MSA™ technology (see Kuschel et al., 2006) as above in example 1. Instead of the extracellular matrix proteins, however, peptides coupled to bovine serum albumin were printed in the form of microarrays (8×8 microspots) onto the nitrocellulose layer, and then the remaining surface was sealed. For incubation with cells, small silicone chambers were placed on the coated slides, and incubated with MSCs or fibroblasts. After incubation for two hours, the non-adherent cells were washed away.
(§2) Adherent cells were made visible on the white nitrocellulose film by staining with Coomassie Blue and were evaluated in a motorized photomicroscope: the number of blue cells or the color intensity per spot is measured and transferred to tables for evaluation.
(§3) Evaluation of these arrays using the semi-automatic photomicroscope gave the relative binding strength on PLL (standardized to 100%, positive control) and BSA (standardized to 0%, negative control) for the peptides tested in each case.

Another assay relates to fibroblasts. Description: Adhesion of fibroblasts to BSA-coupled peptide microarrays (MSA technology). The conditions noted are these: peptide coupled to bovine serum albumin, incubation two hours, FIG. 3. In kind it is cell-based, human. The procedure: as §1, §2, §3

Square brackets hold non-standard residues; d marks the D form. Ends that are not written are not given here. Orn = NCCC[C@H](N)C(=O)O; DOA = not defined here; Doa = not defined here

17 substances from patent publication US20130156819A1, “ISOLATION OF MESENCHYMAL STEM CELLS” (Baden-Württemberg Stiftung gGmbH, priority 2010, published 2013) can be followed below.

For the substance “tenascin-C: oligomeric glycoprotein of the extracellular matrix, immobilized on the chip”, the “binding of the MSCs to the protein compared with binding of fibroblasts” value in assay [1] is reported as “firmer”.

With “LAIKNDNLVYVY-OH (listed as Homo sapiens) [No. 15]”, in the assay with MSCs, the “adhesion of MSCs to the peptide” value is “make the adhesion of MSCs possible”. For the same substance, the “adhesion of fibroblasts to the peptide” value with fibroblasts is on record as “not that of fibroblasts”.

For the substance “GEFYFDLRLKGDK-OH (listed as Homo sapiens) [No. 5]”, the “adhesion of MSCs to the peptide” value with MSCs is given as “make the adhesion of MSCs possible”. Also, in the assay with fibroblasts, the “adhesion of fibroblasts to the peptide” value is on record as “not that of fibroblasts”. In the same order, the values of “GRGDSO-OH (GRGDS[Orn]-OH; N-terminus assumed; SMILES N=C(N)NCCC[C@H](NC(=O)CN)C(=O)NCC(=O)N[C@@H](CC(=O)O)C(=O)N[C@@H](CO)C(=O)N[C@@H](CCCN)C(=O)O; listed as Homo sapiens) [No. 11]” are “make the adhesion of MSCs possible” and “not that of fibroblasts”. Regarding “YIIR-DOA-A-OH (YIIR[DOA]A-OH; reading uncertain; also: printed as YIIR-DOA-A-OH; listed as Homo sapiens) [No. 34-COOH]”, in the assay on MSCs, the “adhesion of MSCs to the peptide” value is “make the adhesion of MSCs possible”. The “adhesion of fibroblasts to the peptide” value in the assay on fibroblasts is “not that of fibroblasts”. As to “KREDVY-COOH (KREDVY-OH; listed as Homo sapiens) [No. 21-COOH]”, the “adhesion of MSCs to the peptide” value in the assay on MSCs was “make the adhesion of MSCs possible”. Moreover, in the assay on fibroblasts, the “adhesion of fibroblasts to the peptide” value is recorded as “not that of fibroblasts”. For the substance “WTPPRAQITGYRLTVGLTRR-OH (listed as Homo sapiens) [No. 30]”, the “adhesion of MSCs to the peptide” value in the assay with MSCs is reported as “make the adhesion of MSCs possible”. Further, in the assay on fibroblasts, the “adhesion of fibroblasts to the peptide” value is on record as “not that of fibroblasts”. For the substance “KRSR-DOA-A-OH (KRSR[DOA]A-OH; reading uncertain; also: printed as KRSR-DOA-A-OH; listed as Homo sapiens) [No. 37b]”, the “adhesion of MSCs to the peptide” value in the assay on MSCs is listed as “make the adhesion of MSCs possible”. Further, the “adhesion of fibroblasts to the peptide” value in the assay with fibroblasts was “not that of fibroblasts”. Take “KREDVY-OH (listed as Homo sapiens) [No. 21]”: the “adhesion of MSCs to the peptide” value in the assay on MSCs was “make the adhesion of MSCs possible”. Besides, the “adhesion of fibroblasts to the peptide” value in the assay with fibroblasts is reported as “not that of fibroblasts”. On to “LRE-Doa-A-OH (LRE[Doa]A-OH; reading uncertain; also: printed as LRE-Doa-A-OH; listed as Homo sapiens) [No. 9-COOH]”, for which the “adhesion of MSCs to the peptide” value with MSCs is given as “make the adhesion of MSCs possible”. In addition, the “adhesion of fibroblasts to the peptide” value in the assay with fibroblasts was “not that of fibroblasts”.

Consider “EILDV-OH (listed as Homo sapiens) [No. 22]”, for which the “adhesion of MSCs to the peptide” value in the assay with MSCs is “make the adhesion of MSCs possible”. Moreover, the “adhesion of fibroblasts to the peptide” value in the assay with fibroblasts was “not that of fibroblasts”. With “EILDV-COOH (EILDV-OH; listed as Homo sapiens) [No. 22-COOH]”, the “adhesion of MSCs to the peptide” value with MSCs was “make the adhesion of MSCs possible”. Also, the “adhesion of fibroblasts to the peptide” value with fibroblasts is on record as “not that of fibroblasts”. As for “GF-Orn-GER-OH (GF[Orn]GER-OH; N-terminus assumed; SMILES N=C(N)NCCC[C@H](NC(=O)[C@H](CCC(=O)O)NC(=O)CNC(=O)[C@H](CCCN)NC(=O)[C@H](Cc1ccccc1)NC(=O)CN)C(=O)O) [No. 1]”, the “adhesion of MSCs to the peptide” value in the assay with MSCs is “make the adhesion of MSCs possible”. In addition, the “adhesion of fibroblasts to the peptide” value in the assay on fibroblasts is given as “not that of fibroblasts”.

For the substance “DVISLYNFKHIY-OH (listed as Homo sapiens) [No. 16]”, the “adhesion of MSCs to the peptide” value with MSCs was “make the adhesion of MSCs possible”. For the same substance, the “adhesion of fibroblasts to the peptide” value with fibroblasts is listed as “not that of fibroblasts”. Regarding “YIIR-OH (listed as Homo sapiens) [No. 34]”, the “adhesion of MSCs to the peptide” value in the assay on MSCs is recorded as “make the adhesion of MSCs possible”. Also, the “adhesion of fibroblasts to the peptide” value in the assay on fibroblasts is “not that of fibroblasts”. Consider “DRVPHSRNSIT-OH (listed as Homo sapiens) [No. 20]”, for which the “adhesion of MSCs to the peptide” value in the assay on MSCs is “make the adhesion of MSCs possible”. Further, the “adhesion of fibroblasts to the peptide” value in the assay on fibroblasts is recorded as “not that of fibroblasts”.

“LRE-OH (Leu-Arg-Glu-OH; listed as Homo sapiens) [No. 9]”: the “adhesion of MSCs to the peptide” value in the assay with MSCs is recorded as “make the adhesion of MSCs possible”. In the assay with fibroblasts, the “adhesion of fibroblasts to the peptide” value is “not that of fibroblasts”.
